Source: patent publication US12171203B2, “Transgenic biosensor” (KDT, Inc., priority 2011, dated 2024)

Legend:
Assay type in all cases: in vivo, C. elegans
Phsp-16::hRFP reporter = test: fluorescent plate reader assay of toxin dosage sensitivity, hsp-16::hRFP nematodes; settings: 24 hr exposure, ~600 worms per well, assayed in triplicate; read-out: EC50 of red fluorescence response of Phsp-16::hRFP reporter
Text: FIGS. 3A, B, and C show the fluorescence plate-reader sensitivity and toxin response.
For instance, a protein homeostasis reporter was created by fusing heat shock protein to a nuclear localized red fluorescent protein (hsp-16.42::hRFP)(the materials and methods for the construction of the transgenic organism are described in more detail in the examples below). Exposure to heat toxicity generates induction of nuclear localization. This heat shock gene reporter was screened for gene induction capacity using a heat-shock protocol. The hsp-16::hRFP construct is exposed to a 1 hr incubation at 30 C. Gene induction was screened 4 to 24 hrs after heat shock. Significant red fluorescence is observed in the nuclei of heat-shocked worm relative to control (FIG. 5).
Toxin sensitivity of hsp-16 was confirmed with exposure to heavy metals and metalloids. To develop a rapid screen for the hsp-16::hRFP expression, a fluorescent plate reader assay was developed. To test the sensitivity of this assay, a titrating concentration of nematodes were exposed to heat shock. The worms were transferred to a 96 well plate and red fluorescence was quantified. Good sensitivity for a red fluorescence signal occurs at concentrations of 50 or more worms (FIG. 3A). Next, the toxin dosage sensitivity was measured.

[1] = test system: metallothionein gene (mtl-2) promoter reporter; test: two-color nematode biosensor panel, plate reader assay, mtl-2 reporter; settings: cadmium 1 mM, NGM plates, 15 hrs; population-normalized change relative to unexposed control
Text: (§1) Responses are population-normalized changes relative to unexposed control. Error bars indicate […] of 2 to 6 independent measurements. The label “2 line” indicates data derived from combining responses of two independently-derived MosSCI lines for the same reporter.
(§2) The seven different promoters used to create the lines were obtained from genes involved in oxidative stress response. Two genes used were alpha cystallins which respond to cytoplasmic heat shock (hsp-16.2 and hsp-16.41) (David et al. Environ. Toxicol. Chem 2003 January; 22(1):111-118; Hong et al. J. Mol. Biol 2004 November; 344(2):369-381; Candido E P M. Prog. Mol. Subcell. Biol 2002; 28:61-78; Dengg et al. J Pharmacol Toxicol Methods 2004 December; 50(3):209-214; and Strayer et al. FASEB J 2003 December; 17(15):2305-2307). […] The resulting hsRFP reporter construct expresses red fluorescence in cell nuclei. […]
(§3) Changes in expression were quantified with a plate reader assay. […]

ugt-1 promoter reporter = test: two-color nematode biosensor panel, plate reader assay, ugt-1 reporter; settings: cadmium 1 mM, NGM plates, 15 hrs; population-normalized change relative to unexposed control
Text: as §1, §2, §3

[2] = test system: hsp-16's (hsp-16.2, hsp-16.41) promoter reporters; test: two-color nematode biosensor panel, plate reader assay, hsp-16 reporters; settings: cadmium 1 mM, NGM plates, 15 hrs; population-normalized change relative to unexposed control
Text: as §1, §2, §3

hsp-4 promoter reporter = test: two-color nematode biosensor panel, plate reader assay, hsp-4 reporter; settings: cadmium 1 mM, NGM plates, 15 hrs; population-normalized change relative to unexposed control
Text: as §1, §2, §3

nematode population = test: chronic toxin exposure, effect on nematode population size; settings: chronic exposure for 72 hrs, various concentrations
Description: FIGS. 4A, B, and C show the population effects of chronic toxin exposure.
Advantageously, the transgenic animals described in these examples can have a control reporter (e.g., constitutively expressed). Exposure to some selected agents or toxins can lead to shortened life-span, lower brood sizes or other effects that need to be controlled. The problem becomes most pronounced in chronic assays. […] Thus, it was determined a control for population mass differences between assay wells is desirable. Introduction of a second constitutively expressed reporter gene can be used to control for various population differences.

Compound	EC50 (Phsp-16::hRFP reporter) [µM]	induction of metallothionein gene expression (reporter) [1]	induction of expression from ugt-1 reporter (ugt-1 promoter reporter)	induction of expression from hsp-16's reporters [2]	induction of expression from hsp-4 reporter (hsp-4 promoter reporter)	effect on population size (nematode population)
sodium bis-arsenite [arsenic]	~1500	–	–	–	–	–
[Cl][Cd][Cl] [cadmium, cadmium chloride]	~200	primarily induced	only mildly induced	only mildly induced	only mildly induced	significant population effects
